Test results taken from patent US8664261B2, “Organic compounds having cooling properties” (Givaudan S.A., priority 2009, dated 2014).

What was measured:
panelists [1] = assay: Cooling intensity: panelists taste aqueous solutions, compared with menthol at 2 ppm; type: in vivo; conditions: aqueous solution with cooling intensity similar to or slightly higher than a solution of menthol at 2 ppm; tasted by small group of panelists
panelists [2] = assay: Application in toothpaste: duration of perceived cooling sensation after brushing; type: in vivo; conditions: 0.10 g of 10% ethanol solution of compound + 0.03 g saccharin in 9.96 g opaque toothgel base; teeth brushed, mouth rinsed with water
Experimental: 0.10 g of a 10% solution in ethanol of a compound of formula (I) listed in Table 4 below and 0.03 g saccharin were mixed in 9.96 g of an opaque toothgel base. A piece of the thus prepared toothpaste was put on a toothbrush and a panelist's teeth were brushed. The mouth was rinsed with water and the water spat out. A long lasting cooling sensation was felt by the panelist in all areas of the mouth. The cooling sensation was perceived for up to 60 min (see Table 5).

Compound | Concentration (panelists [1]) [ppm] | Perceived cooling sensation (panelists [2]) [min]
CC(C)[C@@H]1CC[C@@H](C)C[C@H]1C(=O)NCCc1ccccn1 [(1R,2S,5R)-2-isopropyl-5-methyl-N-(2-(pyridin-2-yl)ethyl)cyclohexanecarboxamide, reference compound] | 0.02 | 
CC(C)[C@@H]1CC[C@@H](C)C[C@H]1C(=O)Nc1ccc(CC#N)cc1 [(1R,2S,5R)-N-(4-(cyanomethyl)phenyl)-2-isopropyl-5-methylcyclohexanecarboxamide, reference compound] | 0.2 | 
CC(Cc1cccnc1)NC(=O)[C@@H]1C[C@H](C)CC[C@H]1C(C)C (stereo partly drawn) [Example 1, (1R,2S,5R)-2-isopropyl-5-methyl-N-(1-(pyridin-3-yl)propan-2-yl)cyclohexanecarboxamide] | 0.01 | 30
CC(C)[C@@H]1CC[C@@H](C)C[C@H]1C(=O)NCCc1ncc[nH]1 [Example 2H, (1R,2S,5R)-N-(2-(1H-imidazol-2-yl)ethyl)-2-isopropyl-5-methlycyclohexane-carboxamide] | 0.2 | 40
Cc1[nH]c2ccccc2c1CCNC(=O)[C@@H]1C[C@H](C)CC[C@H]1C(C)C [Example 2I, (1R,2S,5R)-2-isopropyl-5-methyl-N-(2-(2-methyl-1H-indol-3-yl)ethyl)cyclohexane-carboxamide] |  | 60
CC(C)[C@@H]1CC[C@@H](C)C[C@H]1C(=O)NCCn1ccc2ccccc21 [Example 2J, (1R,2S,5R)-N-(2-(1H-indol-1-yl)ethyl)-2-isopropyl-5-methylcyclohexanecarboxamide] | 0.002 | 
CC(Cc1ccsc1)NC(=O)[C@@H]1C[C@H](C)CC[C@H]1C(C)C (stereo partly drawn) [Example 2M, (1R,2S,5R)-2-isopropyl-5-methyl-N-(1-(thiophen-3-yl)propan-2-yl)cyclohexane-carboxamide] | 0.002 | 40
CC1CCC(C(C)C)C(O)C1 (stereo not drawn) [I-Menthol, reference compound] | 2.0 | 
CCNC(=O)C1CC(C)CCC1C(C)C (stereo not drawn) [N-ethyl p-menthanecarboxamide, reference compound] | 1.5 | 
